Tested on: Human keratinocytes
Assay: Cornified envelope formation (terminal differentiation) in confluent human keratinocyte culture
Format: cell-based
Details: for keratinocyte differentiation (percent of cornified envelopes): agent alone vs vehicle control, confluent keratinocytes, 5 days (FIG. 2, FIG. 3)
Procedure: In this study, Keratinocyte Cell Culture-Neonatal foreskin kerinocytes, purchased from Lonza (Walkersville, Md., USA), were grown in keratinocyte-SFM (Gilbro-BRL, Gaithersburg, Md., USA). This complete medium consists of keratinocyte basal medium and supplements (Gibco-BRL), human combinant EGF (5 ng/mL) and bovine pituitary extract (50 μg protein/mL). The calcium concentration in this medium is 0.09 mM.
Unless indicated in the description for a particular figure set forth below, confluent fifth passage keratinocytes were used, with treatments beginning 2 days after the last addition of complete medium. The media was changed and the cells were pretreated with PD153035 (300 nM) for two hours. Media was again changed to contain PD153035 (300 nM) and epidermal growth factor (10 ng/mL) and left for 24 hours. The media was changed a final time to basal media supplemented with 1 mM CaCl2 and 0.1% bovine serum albumin with the indicated chemical additions. The cells were incubated at 37° C., 5% CO2 for 5 days before the comified envelopes were scored. The vehicle, DMSO, was used as the control for both PD153035 and TCDD.
In reference to FIG. 2, Human keratinocytes were grown to confluence and treated with vehicle of media (control), sodium butyrate, epidermal growth factor (EGF) or a combination of EGF and NAB for 5 days. Cornified envelope formation is an endpoint of terminal differentiation. The percent of comified envelopes was calculated by dividing the number of cornified envelopes by the number of cells (times 100).
In FIG. 3, Human keratinocytes were grown to confluence and treated with vehicle of dimethylsulfoxide (DMSO), 2,3,7,8-tetrachlorodibenzo-p-dioxin (TCDD), epidermal growth factor (EFG) or a combination of EGF and TCDD for 5 days. Comified envelope formation is an endpoint of terminal cell differentiation. The percent of cornified envelopes was calculated by dividing the number of cornified envelopes by the number of cells (times 100).
In FIG. 4, Human keratinocytes were grown to confluence and treated with vehicle of DMSO (−/−), sodium butyrate (NaB) alone (−/+); epidermal growth factor (EGF) alone (+/−) or a combination of EGF and NaB (+/+) with or without PD153035 for 5 days. Comified envelope formation is an endpoint of terminal cell differentiation. The average percent (n=3, +/−std dev) of cornified envelopes was calculated by dividing the number of cornified envelopes by the number of cells (times 100).
In FIG. 5, Human keratinocytes were grown to confluence and treated with vehicle of DMSO (−/−), TCDD alone (−/+), epidermal growth factor (EGF) alone (+/−) or a combination of EGF and TCDD (+/+) with or without PD153035 for 5 days. Cornified envelope formation is an endpoint of terminal cell differentiation. The average percent (n=3, +/−std dev) of comified envelopes was calculated by dividing the number of cornified envelopes by the number of cells (times 100).

Molecule: COc1cc2ncnc(Nc3cccc(Br)c3)c2cc1OC [PD153035]
- effect on sodium butyrate mediated differentiation (percent of cornified envelopes) (PD153035 300 nM, in the presence of EGF 10 ng/mL, 5 days, n=3 (FIG. 4)): increasing sodium butyrate mediated differentiation
- effect on TCDD-mediated differentiation (percent of cornified envelopes) (PD153035 300 nM, in the presence of EGF 10 ng/mL, 5 days, n=3 (FIG. 5)): increasing TCDD-mediated differentiation

Molecule: Clc1cc2c(cc1Cl)Oc1cc(Cl)c(Cl)cc1O2 [TCDD, 2,3,7,8-tetrachlorodibenzo-p-dioxin]
- keratinocyte differentiation (percent of cornified envelopes): increases in keratinocyte differentiation

Molecule: CCCC(=O)[O-].[Na+] [sodium butyrate]
- keratinocyte differentiation (percent of cornified envelopes): increases in keratinocyte differentiation

Molecule: EGF: epidermal growth factor, a growth factor supporting the proliferation of epithelial cells
- effect on TCDD increase in keratinocyte differentiation (percent of cornified envelopes) (combination of EGF and TCDD, 5 days (FIG. 3)): inhibited
- effect on sodium butyrate increase in keratinocyte differentiation (percent of cornified envelopes) (combination of EGF and sodium butyrate, 5 days (FIG. 2)): inhibited
